According to patent US7449484B2, “Compounds” (SmithKline Beecham Corporation, priority 2000, dated 2008):

Assays:
[1] = tested on: murine airpouch granuloma; test: Murine Air Pouch Granuloma Model of angiogenesis in vivo; set-up: species or system mice; settings: positive control
Text: Measurement of Angiogenesis In Vivo—Murine Air Pouch Granuloma Model:
The murine airpouch granuloma model of chronic inflammation (Kimura et al., 1985, J. Pharmacobio-Dyn., 8:393-400; Colville-Nash et al., 1995, J. Pharm. and Exp. Ther., 274:1463-1472) whose disclosure is incorporated herein by reference in its entirety, is characterized by inflammatory cell influx, fibrous tissue proliferation and intense angiogenesis. […] In addition, angiogenesis can be accurately quantitated by a vascular casting method.
Day 1, mice are anesthetized using Aerrane (isoflurane) gas (5%) or other approved methods, after which 3 mls of air is injected into the dorsal subcutaneous tissue using a 27 g needle. Mice are allowed to recover. […]
When the granuloma is removed it is weighed and then dried for 3 days at 45° C. and reweighed. […] The carmine content is then determined against a carmine red standard curve (0.5 to 2 mg/ml) generated in extracted tissue from non carmine treated animals and read at 490 nm. Sample and standard values are determined typically using DeltaSoft Elisa analysis software (Biometallics Inc., Princeton, N.J.). […]
The effect of compounds on vascular density was typically measured for 6 days after induction of the granuloma. This time point has been determined to be at or near the peak of angiogenesis. […] Medroxyprogesterone had no effect on granuloma size as measured by dry weight.

Compound | melting point [°C] | maximum reduction (vascular density) ([1]; measured 6 days after induction of the granuloma) [%] | effect on granuloma size as measured by dry weight ([1]; murine air pouch granuloma)
CCOc1ccc2cc(-c3nc(C(C)(C)C)[nH]c3-c3ccncc3)ccc2c1 | 258 to 259 |  | 
medroxyprogesterone |  | 50 | no effect
